SMILES strings stand for the structures. pIC50: −log10 of the molar value.

From patent US5374623A, “Cysteine protease inhibitors effective for in vivo use” (Prototek, Inc., priority 1992, dated 1994) come the findings set out here.

Assay [1] relates to DBA/Lac mice injected with type II chick collagen. As to the kind of experiment: Type II collagen arthritis in mice, oral 3-25 mg/kg/day (Example 14). The class given is in vivo. The settings on record: gavage 3 to 25 mg/kg/day in phosphate buffered saline, day 21 to day 35; scale 0-3. How it is done: DBA/Lac mice were injected with 200 μg of type II chick collagen emulsified in Complete Freund's Adjuvant on day 0 and on day 21. Mu-Phe-HPhe-O-Ph was suspended in phosphate buffered saline and administered by gavage from day 21 until sacrifice at day 35. Doses of between 3 mg/kg/day and 25 mg/kg/day were used, with the daily dosage being held constant over time for each test. The severity of joint inflammation was evaluated grossly at seven day intervals beginning on day 21. The effect of oral administration of Mu-Phe-HPhe-O-Ph on the severity of bone lesions in adjuvant-induced arthritis was determined by evaluating osseous mineralization, periostat proliferation, bone erosion, joint space narrowing and osseous fragmentation. All lesions were scored on a scale of 0 (normal architecture) to 3 (severe or marked changes). Values calculated were mean values ±1 std. error of the mean.

Assay [2] relates to Soluble extracts of P. vinckei. As to the kind of experiment: Proteolytic activity of P. vinckei soluble extracts, substrate Z-Phe-Arg-AFC. Particulars: read-out: IC50, proteolytic activity of P. vinckei extract. Format: biochemical. How it is done:
Treatment of Malaria with Mu-Phe-HPhe-O-Ph. Soluble extracts of P. falciparum and P. vinckei were prepared and proteolytic activity was assayed with fluorogenic peptide substrate Z-Phe-Arg-AFC. The activity of control samples was compared with activities in the presence of multiple concentrations of Mu-Phe-HPhe-O-Ph. The concentrations at which activity was inhibited by 50% (IC50) was calculated.
Treatment of Malaria with Mu-Leu-HPhe-O-Ph. Soluble extracts of P. falciparum and P. vinckei were prepared and proteolytic activity was assayed with fluorogenic peptide substrate Z-Phe-Arg-AFC. The activity of control samples was compared with activities in the presence of multiple concentrations of Mu-Leu-HPhe-O-Phe. The concentration at which activity was inhibited by 50%. (IC50) was calculated.
Treatment of Malaria with Mu-Phe-Arg(NO2)-O-Ph. Soluble extracts of P. falciparum and P. vinckei were prepared and proteolytic activity was assayed with fluorogenic peptide substrate Z-Phe-Arg-AFC. The activity of control samples was compared with activities in the presence of multiple concentrations of Mu-Phe-Arg(NO2)-O-Ph. The concentration at which activity was inhibited by 50% (IC50) was calculated.
Treatment of Malaria with Mu-Tyr(OCH3)2 -HPhe-O-Ph. Soluble extracts of P. falciparum and P. vinckei were prepared and proteolytic activity was assayed with fluorogenic peptide substrate Z-Phe-Arg-AFC. The activity of control samples as compared with activities in the presence of multiple concentrations of Mu-Tyr(OCH3)2 -HPhe-O-Ph. The concentration at which activity was inhibited by 50% (IC50) was calculated.

Assay [3] concerns the target Soluble extracts of P. falciparum (cysteine proteinase). Description: Proteolytic activity of P. falciparum soluble extracts, substrate Z-Phe-Arg-AFC. The settings on record: read-out: IC50, proteolytic activity of P. falciparum extract. The class given is biochemical.
Procedure: Soluble extracts of P. falciparum and P. vinckei were prepared and proteolytic activity was assayed with fluorogenic peptide substrate Z-Phe-Arg-AFC. […] The concentrations at which activity was inhibited by 50% (IC50) was calculated.
Soluble extracts of P. falciparum and P. vinckei were prepared and proteolytic activity was assayed with fluorogenic peptide substrate Z-Phe-Arg-AFC. […] The concentration at which activity was inhibited by 50%. (IC50) was calculated.
Soluble extracts of P. falciparum and P. vinckei were prepared and proteolytic activity was assayed with fluorogenic peptide substrate Z-Phe-Arg-AFC. […] The concentration at which activity was inhibited by 50% (IC50) was calculated.
In assay [4] the test system is 45Ca2+-labelled bones (calvaria) of neonatal mice. As to the kind of experiment: Parathyroid hormone-stimulated 45Ca2+ release from cultured mouse calvaria. Format: cell-based. Particulars: 24 hour period, PTH-stimulated. How it is done:
(§1) Treatment of Osteo Arthritis with Mu-Phe-HPhe-O-Ph. ^45 Ca^2+ -labelled bones (calvaria) of neonatal mice were maintained in culture. The effect of the test compound on the rate of parathyroid hormone-stimulated ^45 Ca^2+ release was measured over a 24 hour period. An inhibitor of bone resorption (at maximal concentrations) would be expected to inhibit this rate by approximately 70%. The nature of the residual, uninhibitable ^45 Ca^2+ -release is not known but could represent chemical exchange of ^45 Ca^2+ with the medium. Mu-Phe-HPhe-O-Ph was dissolved in dimethylsulphoxide which was present in the incubation at concentrations <0.1%.
as §1, with “Mu-Leu-HPhe-O-Ph.” for “Mu-Phe-HPhe-O-Ph.”, “Mu-Leu-HPhe-O-Ph” for “Mu-Phe-HPhe-O-Ph”
as §1, with “Mu-Tyr(OMe)-HPhe-O-Ph.” for “Mu-Phe-HPhe-O-Ph.”, “Mu-Tyr(OMe)-HPhe-O-Ph” for “Mu-Phe-HPhe-O-Ph”
as §1, with “Z-Phe-Ala-O-Ph.” for “Mu-Phe-HPhe-O-Ph.”, “Z-Phe-Ala-O-Ph” for “Mu-Phe-HPhe-O-Ph”
as §1, with “Mu-Tyr(OMe)-HPhe-O-Ph.” for “Mu-Phe-HPhe-O-Ph.”, “labelled” for “-labelled”, “Mu-Tyr(OMe)-HPhe-O-Ph” for “Mu-Phe-HPhe-O-Ph”

Take `O=C(O)Cc1ccccc1OCC(=O)[C@H](CCc1ccccc1)NC(=O)[C@H](Cc1ccccc1)NC(=O)N1CCOCC1` [Mu-Phe-HPhe-O-Ph, (4-morpholinylcarbonyl)-L-phenylalanyl-L-homophenylalanyl-(2-carboxymethyl)phenoxymethyl ketone]: in assay [1], the “bone lesion severity values vs control animals” value is listed as “significantly (p<0.05) lower than the values of control animals”. Moreover, the pIC50 was 8.29 in assay [2] and 8.52 in assay [3]. In assay [4] (1 μm inhibitor), the “inhibition of the rate of 45Ca2+-release” value turned out to be 50%. The “additional inhibition of the rate of 45Ca2+-release” value in assay [4] (100 μm inhibitor) stood at 20%.
